Data published in ChEMBL document CHEMBL3879915, “Methods of inhibiting PRMT5” (2014).

Tests used:
PRMT5/MEP50 complex = PRMT5/MEP50 complex (Homo sapiens, UniProt O14744); experiment: Inhibition of recombinant human fetal brain FLAG-tagged PRMT5/full length human testis 6His-tagged MEP50 expressed in baculovirus infected insect Sf9 cells using human histone H4 (1 to 15 residues) as substrate preincubated for 30 mins followed by [3H]-SAM addition
[1] = molecular target: Protein arginine N-methyltransferase 5 (Homo sapiens, UniProt O14744); experiment: Inhibition of PRMT5 in human Z138 cells assessed as decrease in di-methyl arginine levels after 96 hrs by Western blot method; format: cell-based
[2] = Antiproliferative activity against human Z138 cells assessed as inhibition of cell viability after 5 days by Cell-Titer Glo assay; format: functional, cell-based; details: Z-138, 120 h

Chain of Protein arginine N-methyltransferase 5 (O14744 whole entry): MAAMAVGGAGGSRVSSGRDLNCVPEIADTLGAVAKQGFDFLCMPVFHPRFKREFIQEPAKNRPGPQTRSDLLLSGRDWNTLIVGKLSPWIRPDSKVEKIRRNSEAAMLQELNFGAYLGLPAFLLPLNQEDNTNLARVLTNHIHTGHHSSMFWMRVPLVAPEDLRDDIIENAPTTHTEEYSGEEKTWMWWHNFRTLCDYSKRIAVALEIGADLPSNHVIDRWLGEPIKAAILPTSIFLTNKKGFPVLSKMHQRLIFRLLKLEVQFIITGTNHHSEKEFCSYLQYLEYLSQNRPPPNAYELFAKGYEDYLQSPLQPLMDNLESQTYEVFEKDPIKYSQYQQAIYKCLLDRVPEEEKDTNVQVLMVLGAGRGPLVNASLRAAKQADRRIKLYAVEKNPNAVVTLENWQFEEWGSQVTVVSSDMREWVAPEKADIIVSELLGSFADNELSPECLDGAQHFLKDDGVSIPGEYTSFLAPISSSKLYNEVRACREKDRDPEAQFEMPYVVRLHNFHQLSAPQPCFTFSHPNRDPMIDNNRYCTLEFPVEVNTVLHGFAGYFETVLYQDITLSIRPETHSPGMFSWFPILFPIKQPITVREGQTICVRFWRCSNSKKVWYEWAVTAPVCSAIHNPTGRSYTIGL
Chain of PRMT5/MEP50 complex (O14744 whole entry, the tested form may be a part): as the sequence (O14744 whole entry) above
Chain of PRMT5/MEP50 complex (Q9BQA1 whole entry, further chain, the tested form may be a part): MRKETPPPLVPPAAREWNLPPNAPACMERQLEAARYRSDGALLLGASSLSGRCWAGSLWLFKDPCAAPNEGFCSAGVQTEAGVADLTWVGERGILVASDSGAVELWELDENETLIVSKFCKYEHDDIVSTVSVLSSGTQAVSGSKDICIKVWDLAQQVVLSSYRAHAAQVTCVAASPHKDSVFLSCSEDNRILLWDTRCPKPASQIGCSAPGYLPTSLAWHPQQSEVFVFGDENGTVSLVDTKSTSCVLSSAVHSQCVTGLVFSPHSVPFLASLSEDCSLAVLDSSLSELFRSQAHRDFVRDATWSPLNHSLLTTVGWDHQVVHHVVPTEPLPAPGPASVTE

Row | SMILES | IC50 (PRMT5/MEP50 complex) [nM] | EC50 [1] [nM] | EC50 [2] [nM]
1 | O=C(COc1ccccc1C1CCNC1)NCC(O)CN1CCc2ccccc2C1 (stereo not given) | 1000 to 10000 | 1000 to 10000 | > 20000
2 | O=C(NCC(O)CN1CCc2ccccc2C1)c1ccc(-c2ccccn2)cc1 (stereo not given) | < 100 | < 100 | 101 to 1000
3 | CN1CCN(Cc2cccc(C(=O)NCC(O)CN3CCc4ccccc4C3)c2)CC1 (stereo not given) | < 100 | 101 to 1000 | 1000 to 10000
4 | O=C(NCC(O)CN1CCc2ccccc2C1)c1cccc(C2CCNC2)c1 (stereo not given) | < 100 | 101 to 1000 | > 20000
5 | O=C(NCC(O)CN1CCc2ccccc2C1)c1cccc(-c2ccncc2)c1 (stereo not given) | < 100 | < 100 | 1000 to 10000
6 | O=C1CN(c2cccc3cccnc23)CCN1CC(O)CN1CCc2ccccc2C1 (stereo not given) | < 100 | 101 to 1000 | 1000 to 10000
7 | O=C1COc2ccccc2N1CC(O)CN1CCc2ccccc2C1 (stereo not given) | 101 to 1000 | 101 to 1000 | > 20000
8 | CS(=O)(=O)Nc1ccc(C(=O)NCC(O)CN2CCc3ccccc3C2)cc1 (stereo not given) | 101 to 1000 | 101 to 1000 | 10000 to 50000
9 | O=C(NCC(O)CN1CCc2ccccc2C1)c1cccc(-c2cccnc2)c1 (stereo not given) | < 100 | < 100 | 1000 to 10000
10 | O=C(NCC(O)CN1CCc2ccccc2C1)c1cccc(CN2CCNCC2)c1 (stereo not given) | < 100 | 101 to 1000 | 1000 to 10000
11 | CN(c1cccc(OCC(=O)NCC(O)CN2CCc3ccccc3C2)c1)S(C)(=O)=O (stereo not given) | 101 to 1000 | 101 to 1000 | > 20000
12 | CNCCOc1cccc(C(=O)NCC(O)CN2CCc3ccccc3C2)c1 (stereo not given) | 101 to 1000 | 1000 to 10000 | > 20000
13 | O=C1CN(c2ccccc2Cl)CCN1CC(O)CN1CCc2ccccc2C1 (stereo not given) | 101 to 1000 | 101 to 1000 | 10000 to 50000
14 | O=C(NCC(O)CN1CCc2ccccc2C1)c1cccnc1 (stereo not given) | 101 to 1000 | 101 to 1000 | 10000 to 50000
15 | O=C1CN(c2cncc(N3CCOCC3)c2)CCN1CC(O)CN1CCc2ccccc2C1 (stereo not given) | < 100 | 101 to 1000 | 1000 to 10000
16 | CC(=O)Nc1ccc(C(=O)NCC(O)CN2CCc3ccccc3C2)cc1 (stereo not given) | 101 to 1000 | 101 to 1000 | > 20000
17 | O=C(COc1cccc2ncc(=O)[nH]c12)NCC(O)CN1CCc2ccccc2C1 (stereo not given) | 101 to 1000 | 1000 to 10000 | > 20000
18 | NC(=O)c1ccc(C(=O)NCC(O)CN2CCc3ccccc3C2)cc1 (stereo not given) | 101 to 1000 | 101 to 1000 | > 20000

Row | SMILES | IC50 (PRMT5/MEP50 complex) [nM] | EC50 [1] [nM] | EC50 [2] [nM]
19 | CN(C)c1ccccc1N1CCN(C[C@H](O)CN2CCc3ccccc3C2)C(=O)C1 | 101 to 1000 | 101 to 1000 | 10000 to 50000
20 | O=C(NC[C@H](O)CN1CCc2ccccc2C1)Nc1ccccc1 | 101 to 1000 | 101 to 1000 | > 20000
21 | O=C1Cc2ccccc2N1CC(O)CN1CCc2ccccc2C1 (stereo not given) | 101 to 1000 | 101 to 1000 | > 20000
22 | CC(Oc1ccccc1S(C)(=O)=O)C(=O)NCC(O)CN1CCc2ccccc2C1 (stereo not given) | 101 to 1000 | 1000 to 10000 | > 20000
23 | O=C(NC[C@@H](O)CN1CCc2ccccc2C1)c1cccc(-c2ccccn2)c1 | < 100 | 101 to 1000 | 10000 to 50000
24 | OC(COc1ccc(C2CCCNC2)cc1)CN1CCc2ccccc2C1 (stereo not given) | < 100 | 101 to 1000 | 1000 to 10000
25 | Cc1ccc(N2CCN(CC(O)CN3CCc4ccccc4C3)C(=O)C2)cc1 (stereo not given) | 101 to 1000 | 101 to 1000 | > 20000
26 | O=C(COc1cccc2c1OCC(=O)N2)NCC(O)CN1CCc2ccccc2C1 (stereo not given) | 1000 to 10000 | 1000 to 10000 | > 20000
27 | CC(=O)Nc1cccc(C(=O)NCC(O)CN2CCc3ccccc3C2)c1 (stereo not given) | 101 to 1000 | 101 to 1000 | 10000 to 50000
28 | O=C(COc1cccc2c1CNCC2)NCC(O)CN1CCc2ccccc2C1 (stereo not given) | < 100 | 101 to 1000 | 10000 to 50000
29 | O=C(NCC(O)CN1CCc2ccccc2C1)c1cccc(-c2ccccn2)c1 (stereo not given) | < 100 | < 100 | 1000 to 10000
30 | Cn1cc2c(OCC(=O)NCC(O)CN3CCc4ccccc4C3)cccc2n1 (stereo not given) | 101 to 1000 | 1000 to 10000 | > 20000
31 | CN1CCN(c2cccc(C(=O)NCC(O)CN3CCc4ccccc4C3)c2)CC1 (stereo not given) | < 100 | 101 to 1000 | 10000 to 50000
32 | OC(CNc1cccc(CNC2CCCC2)c1)CN1CCc2ccccc2C1 (stereo not given) | 101 to 1000 | 1000 to 10000 | > 20000
33 | O=C(NCC(O)CN1CCc2ccccc2C1)c1cccc(N2CCOCC2)c1 (stereo not given) | < 100 | 101 to 1000 | 1000 to 10000
34 | CN1CCCC(c2ccccc2OCC(=O)NCC(O)CN2CCc3ccccc3C2)C1 (stereo not given) | < 100 | 101 to 1000 | 1000 to 10000
35 | O=C(NCC(O)CN1CCc2ccccc2C1)c1cccc(CNC2CCOCC2)c1 (stereo not given) | < 100 | 101 to 1000 | 10000 to 50000
